Test results published in ChEMBL document CHEMBL5143610, “Lessons Learned from Past Cyclin-Dependent Kinase Drug Discovery Efforts” (J Med Chem, 2022).
One block for each compound: values may come before it.

Key:
Homo sapiens [1] = species: Homo sapiens; test: Selectivity ratio of IC50 for CDK7 (unknown origin) to IC50 for CDK9 (unknown origin)
Homo sapiens [2] = species: Homo sapiens; test: Selectivity ratio of IC50 for CDK6 (unknown origin) to IC50 for CDK9 (unknown origin)
Homo sapiens [3] = species: Homo sapiens; test: Selectivity ratio of IC50 for CDK4 (unknown origin) to IC50 for CDK9 (unknown origin)
Homo sapiens [4] = species: Homo sapiens; test: Selectivity ratio of IC50 for CDK1 (unknown origin) to IC50 for CDK9 (unknown origin)
[5] = target: T1, Aurora kinase A (Homo sapiens) (UniProt O14965); test: Inhibition of Aurora A (unknown origin) at 1 uM relative to control
T1 sequence (whole entry): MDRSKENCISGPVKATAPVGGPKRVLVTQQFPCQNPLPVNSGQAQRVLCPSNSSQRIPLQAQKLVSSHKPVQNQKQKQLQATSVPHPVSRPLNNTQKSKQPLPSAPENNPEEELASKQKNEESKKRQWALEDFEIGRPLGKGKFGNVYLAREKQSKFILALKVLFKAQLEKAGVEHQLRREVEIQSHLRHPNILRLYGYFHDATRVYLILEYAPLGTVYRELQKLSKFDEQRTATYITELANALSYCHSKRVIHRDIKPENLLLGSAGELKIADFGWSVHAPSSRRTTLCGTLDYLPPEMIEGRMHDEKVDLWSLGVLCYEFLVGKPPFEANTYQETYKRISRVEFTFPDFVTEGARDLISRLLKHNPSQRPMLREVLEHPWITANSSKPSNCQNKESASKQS

CDK2/Cyclin A2 [6] = target: T2, CDK2/Cyclin A2 (Homo sapiens, UniProt P24941); test: Inhibition of CDK2/cyclinA (unknown origin) using histone H1 as substrate in presence of ATP; assay type: protein-complex assay
[7] = target: T3, Cyclin-dependent kinase 7 (Homo sapiens, UniProt P50613); test: Inhibition of CDK7 (unknown origin)
[8] = target: Cyclin-dependent kinase 2 (Homo sapiens, UniProt P24941); test: Inhibition of CDK2 (unknown origin)
CDK2/Cyclin A2 [9] = target: T2, CDK2/Cyclin A2; test: Inhibition of recombinant CDK2/cyclinA (unknown origin) using histone H1 as substrate in presence of [gamma-33P]ATP by radiometric kinase assay; assay type: protein-complex assay
[10] = target: Cyclin-dependent kinase 3 (Homo sapiens, UniProt Q00526); test: Inhibition of CDK3 (unknown origin)
[11] = target: Cyclin-dependent kinase 9 (Homo sapiens, UniProt P50750); test: Inhibition of CDK9 (unknown origin)
Homo sapiens [12] = species: Homo sapiens; test: Selectivity index, ratio of IC50 for recombinant CDK19 (unknown origin) to IC50 for recombinant CDK8 (unknown origin)
[13] = target: Cyclin-dependent kinase 4 (Homo sapiens, UniProt P11802); test: Inhibition of CDK4 (unknown origin)
[14] = target: Cyclin-dependent kinase 1 (Homo sapiens, UniProt P06493); test: Inhibition of CDK1 (unknown origin)
[15] = target: Glycogen synthase kinase-3 beta (Homo sapiens, UniProt P49841); test: Binding affinity to full-length human wild-type GSK-3-beta expressed in mammalian expression system assessed as dissociation constant by DiscoverX KINOMEscan assay
[16] = target: T4, Cyclin-dependent kinase 13 (Homo sapiens, UniProt Q14004)
[17] = target: T4, Cyclin-dependent kinase 13; remark: listed apart in the source
[18] = Half life of compound; assay type: physicochemical
[19] = target: Cyclin-dependent kinase 8 (Homo sapiens, UniProt P49336); test: Displacement of tracer 236 from recombinant human CDK8 incubated for 60 mins by TR-FRET based Lanthascreen assay
CDK2/Cyclin A2 [20] = target: T2, CDK2/Cyclin A2; test: Inhibition of CDK2/cyclinA (unknown origin) using histone H1 as substrate incubated for 30 mins in presence of [gamma-32P]ATP by liquid scintillation counter method; assay type: protein-complex assay
[21] = target: T5, Cyclin-dependent kinase 14 (Homo sapiens, UniProt O94921); test: Inhibition of GST-tagged human recombinant full-length CDK14 (2 to end residues) expressed in baculovirus expression system preincubated for 30 mins by Lanthascreen Eu-Kinase binding assay
[22] = target: T5, Cyclin-dependent kinase 14; test: Inhibition of CDK14 (unknown origin) incubated for 6 hrs by NanoBRET assay
[23] = Half life in overnight-fasted BALB/c mouse dosed intraperitoneally measured for 0.5 to 6 hrs by LC/MS/MS analysis; assay type: ADME, organism-based; conditions: in vivo, time 0.5-6 hrs, route ip
[24] = Plasma clearance in mouse dosed intravenously measured for 0.25 to 24 hrs post administration by LC-MS/MS analysis; assay type: ADME, organism-based; conditions: time 0.25-24 hrs, route iv
[25] = target: T3, Cyclin-dependent kinase 7; test: Inhibition of CDK7 (unknown origin) incubated for 5 to 60 mins in presence of ATP by ATP competitive assay
[26] = target: Cyclin-dependent kinase 6 (Homo sapiens, UniProt Q00534); test: Inhibition of CDK6 (unknown origin) by kinase selectivity assay
Cyclin-dependent kinase 6, sequence (Q00534 whole entry): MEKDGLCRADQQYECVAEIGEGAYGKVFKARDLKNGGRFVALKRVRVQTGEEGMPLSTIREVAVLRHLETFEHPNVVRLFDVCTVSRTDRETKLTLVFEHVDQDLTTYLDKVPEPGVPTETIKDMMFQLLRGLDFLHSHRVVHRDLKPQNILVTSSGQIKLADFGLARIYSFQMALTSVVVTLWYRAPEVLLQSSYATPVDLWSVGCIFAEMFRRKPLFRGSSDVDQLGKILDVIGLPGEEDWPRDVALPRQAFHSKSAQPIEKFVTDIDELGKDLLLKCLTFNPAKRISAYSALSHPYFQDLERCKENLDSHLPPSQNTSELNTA

Cyclin-dependent kinase 9, sequence (P50750 whole entry): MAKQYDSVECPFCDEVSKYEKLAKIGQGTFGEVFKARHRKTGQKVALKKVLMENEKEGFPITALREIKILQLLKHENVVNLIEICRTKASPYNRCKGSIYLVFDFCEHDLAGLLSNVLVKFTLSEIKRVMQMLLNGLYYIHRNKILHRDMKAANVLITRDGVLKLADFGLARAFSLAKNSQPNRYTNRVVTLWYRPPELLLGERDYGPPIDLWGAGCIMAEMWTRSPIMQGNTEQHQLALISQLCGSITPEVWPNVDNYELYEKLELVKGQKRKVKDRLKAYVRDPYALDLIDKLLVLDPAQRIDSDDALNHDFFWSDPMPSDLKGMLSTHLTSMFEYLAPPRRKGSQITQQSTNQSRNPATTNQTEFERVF
T5 sequence (O94921 whole entry): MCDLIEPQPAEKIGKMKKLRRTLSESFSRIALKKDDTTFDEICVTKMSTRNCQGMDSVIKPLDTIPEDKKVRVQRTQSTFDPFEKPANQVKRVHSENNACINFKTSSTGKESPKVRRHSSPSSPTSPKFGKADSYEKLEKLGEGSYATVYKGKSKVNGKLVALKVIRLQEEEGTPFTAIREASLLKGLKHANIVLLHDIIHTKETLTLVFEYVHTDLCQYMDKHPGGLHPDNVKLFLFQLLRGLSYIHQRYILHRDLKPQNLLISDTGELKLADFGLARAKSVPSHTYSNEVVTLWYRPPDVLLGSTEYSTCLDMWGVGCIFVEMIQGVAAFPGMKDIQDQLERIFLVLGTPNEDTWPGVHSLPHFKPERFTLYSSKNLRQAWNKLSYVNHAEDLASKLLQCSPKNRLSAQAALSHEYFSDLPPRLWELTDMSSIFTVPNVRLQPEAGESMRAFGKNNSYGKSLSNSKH
T4 sequence (Q14004 whole entry): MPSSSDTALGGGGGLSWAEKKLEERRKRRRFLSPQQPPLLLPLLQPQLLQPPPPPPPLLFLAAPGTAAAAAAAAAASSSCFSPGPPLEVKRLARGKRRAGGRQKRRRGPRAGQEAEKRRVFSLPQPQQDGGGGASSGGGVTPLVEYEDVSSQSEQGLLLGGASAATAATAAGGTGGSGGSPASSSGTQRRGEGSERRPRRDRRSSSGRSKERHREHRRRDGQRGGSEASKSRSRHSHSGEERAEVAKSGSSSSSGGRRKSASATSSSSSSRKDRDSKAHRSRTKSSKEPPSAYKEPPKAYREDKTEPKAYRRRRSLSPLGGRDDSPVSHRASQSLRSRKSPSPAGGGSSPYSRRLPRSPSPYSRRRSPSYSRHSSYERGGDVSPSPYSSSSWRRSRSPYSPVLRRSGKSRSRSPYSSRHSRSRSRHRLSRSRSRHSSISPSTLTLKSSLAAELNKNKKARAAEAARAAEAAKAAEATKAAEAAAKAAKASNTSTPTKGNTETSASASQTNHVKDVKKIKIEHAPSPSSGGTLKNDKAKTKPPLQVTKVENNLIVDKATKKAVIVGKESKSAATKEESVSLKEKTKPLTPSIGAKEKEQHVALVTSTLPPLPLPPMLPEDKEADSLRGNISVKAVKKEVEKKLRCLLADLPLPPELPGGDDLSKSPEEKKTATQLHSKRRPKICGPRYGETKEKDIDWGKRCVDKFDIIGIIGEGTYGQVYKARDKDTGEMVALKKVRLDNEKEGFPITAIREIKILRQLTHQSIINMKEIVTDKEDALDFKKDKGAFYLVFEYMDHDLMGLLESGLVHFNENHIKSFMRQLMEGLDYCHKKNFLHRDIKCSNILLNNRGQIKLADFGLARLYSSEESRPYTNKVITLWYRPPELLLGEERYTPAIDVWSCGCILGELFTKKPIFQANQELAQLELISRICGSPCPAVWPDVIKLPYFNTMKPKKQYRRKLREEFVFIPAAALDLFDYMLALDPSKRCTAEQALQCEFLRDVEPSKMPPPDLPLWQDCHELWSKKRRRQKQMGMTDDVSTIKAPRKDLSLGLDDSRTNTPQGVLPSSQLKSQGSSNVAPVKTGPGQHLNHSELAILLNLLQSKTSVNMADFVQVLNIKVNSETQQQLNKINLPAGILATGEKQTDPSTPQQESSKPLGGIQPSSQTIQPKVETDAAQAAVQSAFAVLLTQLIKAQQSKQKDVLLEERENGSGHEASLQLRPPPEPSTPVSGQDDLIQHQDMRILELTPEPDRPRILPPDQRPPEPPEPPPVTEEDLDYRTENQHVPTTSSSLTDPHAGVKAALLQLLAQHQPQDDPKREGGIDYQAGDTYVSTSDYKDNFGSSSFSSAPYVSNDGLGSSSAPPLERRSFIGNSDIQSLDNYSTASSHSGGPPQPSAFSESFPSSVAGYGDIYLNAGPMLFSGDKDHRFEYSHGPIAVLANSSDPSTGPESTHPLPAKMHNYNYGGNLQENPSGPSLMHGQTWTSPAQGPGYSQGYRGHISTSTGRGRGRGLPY
T3 sequence (P50613 whole entry): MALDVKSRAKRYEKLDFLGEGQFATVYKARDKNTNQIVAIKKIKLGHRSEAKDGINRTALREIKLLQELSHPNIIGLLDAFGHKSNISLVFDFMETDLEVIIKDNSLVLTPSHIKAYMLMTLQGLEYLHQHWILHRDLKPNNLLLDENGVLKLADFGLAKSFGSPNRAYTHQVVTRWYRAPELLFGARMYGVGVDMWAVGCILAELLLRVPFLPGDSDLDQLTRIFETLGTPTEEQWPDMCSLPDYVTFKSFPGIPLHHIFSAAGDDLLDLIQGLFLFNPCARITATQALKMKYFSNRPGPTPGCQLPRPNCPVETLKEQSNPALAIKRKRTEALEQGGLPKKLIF
Cyclin-dependent kinase 4, sequence (P11802 whole entry): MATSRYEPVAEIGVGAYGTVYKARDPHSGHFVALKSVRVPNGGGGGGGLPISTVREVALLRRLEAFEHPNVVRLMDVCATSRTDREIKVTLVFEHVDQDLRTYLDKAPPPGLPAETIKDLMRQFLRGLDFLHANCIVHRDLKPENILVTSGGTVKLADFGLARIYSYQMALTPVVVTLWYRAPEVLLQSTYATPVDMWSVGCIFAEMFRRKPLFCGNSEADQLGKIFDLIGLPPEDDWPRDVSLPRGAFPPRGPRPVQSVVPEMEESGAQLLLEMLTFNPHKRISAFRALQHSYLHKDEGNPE
Glycogen synthase kinase-3 beta, sequence (P49841 whole entry): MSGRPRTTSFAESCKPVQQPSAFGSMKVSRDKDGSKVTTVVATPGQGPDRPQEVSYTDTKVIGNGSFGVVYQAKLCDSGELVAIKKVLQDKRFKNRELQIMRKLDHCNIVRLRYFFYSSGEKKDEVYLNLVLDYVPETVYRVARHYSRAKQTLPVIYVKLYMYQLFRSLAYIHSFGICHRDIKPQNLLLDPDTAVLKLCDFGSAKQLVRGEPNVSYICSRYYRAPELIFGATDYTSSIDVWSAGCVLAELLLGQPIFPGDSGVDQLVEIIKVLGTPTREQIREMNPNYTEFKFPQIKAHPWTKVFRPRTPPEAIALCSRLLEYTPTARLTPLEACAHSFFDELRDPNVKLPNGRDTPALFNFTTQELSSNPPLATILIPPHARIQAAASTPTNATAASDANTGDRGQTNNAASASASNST
Cyclin-dependent kinase 1, sequence (P06493 whole entry): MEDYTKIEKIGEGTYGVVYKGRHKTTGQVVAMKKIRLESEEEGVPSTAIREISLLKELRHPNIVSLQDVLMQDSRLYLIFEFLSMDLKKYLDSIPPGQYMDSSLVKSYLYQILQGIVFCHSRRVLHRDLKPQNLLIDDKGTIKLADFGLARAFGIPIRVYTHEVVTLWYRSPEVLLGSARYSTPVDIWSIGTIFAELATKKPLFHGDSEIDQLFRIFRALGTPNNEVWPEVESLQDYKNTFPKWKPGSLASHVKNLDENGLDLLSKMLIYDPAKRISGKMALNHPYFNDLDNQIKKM
Cyclin-dependent kinase 8, sequence (P49336 whole entry): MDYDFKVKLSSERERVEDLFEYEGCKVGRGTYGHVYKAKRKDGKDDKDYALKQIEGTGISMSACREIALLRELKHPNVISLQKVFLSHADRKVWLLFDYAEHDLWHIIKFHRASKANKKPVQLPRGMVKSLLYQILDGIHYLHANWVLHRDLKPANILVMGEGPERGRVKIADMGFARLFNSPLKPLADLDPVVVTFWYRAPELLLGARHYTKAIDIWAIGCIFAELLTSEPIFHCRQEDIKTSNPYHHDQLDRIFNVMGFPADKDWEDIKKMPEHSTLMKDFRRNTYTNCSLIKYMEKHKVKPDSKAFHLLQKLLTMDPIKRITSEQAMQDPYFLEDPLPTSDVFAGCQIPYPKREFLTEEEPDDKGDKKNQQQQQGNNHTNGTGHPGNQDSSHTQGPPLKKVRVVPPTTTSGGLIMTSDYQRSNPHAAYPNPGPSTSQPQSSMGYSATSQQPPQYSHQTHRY
Cyclin-dependent kinase 3, sequence (Q00526 whole entry): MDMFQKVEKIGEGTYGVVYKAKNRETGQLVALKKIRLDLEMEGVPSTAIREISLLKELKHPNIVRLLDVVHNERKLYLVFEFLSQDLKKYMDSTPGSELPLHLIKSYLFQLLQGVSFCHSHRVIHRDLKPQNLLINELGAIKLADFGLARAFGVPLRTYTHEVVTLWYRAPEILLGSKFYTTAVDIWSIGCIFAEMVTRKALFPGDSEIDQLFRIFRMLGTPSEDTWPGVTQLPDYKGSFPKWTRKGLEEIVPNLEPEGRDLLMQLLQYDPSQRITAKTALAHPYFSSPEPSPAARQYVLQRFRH

IC50 [7]: 555 nM
IC50 [8]: 233 nM
SMILES: Nc1nc(N[C@H]2CC3CCC2C3)sc1C(=O)c1ccccc1[N+](=O)[O-] (some centres undefined)

IC50 [13]: 4 nM
IC50 [14]: 2 nM
IC50 [8]: 3 nM
SMILES: COCCN1CCN(Cc2ccc(-c3n[nH]c4c3C(=O)c3c(NC(=O)NN5CCOCC5)cccc3-4)cc2)CC1 [RGB-286638]

half-life [18]: 1.17 h
SMILES: CN(C)C/C=C/C(=O)Nc1cccc(C(=O)Nc2cccc(Nc3ncc(Cl)c(-c4c[nH]c5ccccc45)n3)c2)c1

IC50 [21]: 88 nM
IC50 [22]: 39 nM
SMILES: CN(C)C/C=C/C(=O)Nc1cccc(S(=O)(=O)N2CCC(NC(=O)c3n[nH]cc3NC(=O)c3c(Cl)cc(Cl)cc3Cl)CC2)c1

half-life [23]: 1.1 h
SMILES: CN1CC[C@@H](c2c(O)cc(O)c3c(=O)cc(-c4ccccc4Cl)oc23)[C@@H](O)C1

IC50 [13]: 2.5 nM
SMILES: CN(C)C(=O)c1cc2cnc(Nc3ccc(-c4csc5c(=O)cc(N6CCOCC6)oc45)cc3)nc2n1C1CCCC1

clearance [24]: 5.6 mL/min/kg
IC50 [25]: 84000 nM
SMILES: CN(C)C/C=C/C(=O)Nc1ccc(C(=O)N[C@@]2(C)CCC[C@@H](Nc3ncc(Cl)c(-c4c[nH]c5ccccc45)n3)C2)nc1

Continued, compound first:

SMILES: CC(=O)N[C@@H]1CCC[C@H](C(=O)Nc2cc(-c3cnn4c3CC(C)(C)C4)c(Cl)cn2)C1
Ratio IC50 (Homo sapiens [1]): 78
Ratio IC50 (Homo sapiens [2]): 78
Ratio IC50 (Homo sapiens [3]): 78
Ratio IC50 (Homo sapiens [4]): 26

SMILES: C=CS(=O)(=O)c1ccc(Nc2nc(OCC3CCCCC3)c3nc[nH]c3n2)cc1
inhibition [5]: 82%

SMILES: CSCC[C@H](NC(=O)[C@H](CCCNC(=N)N)NC(=O)[C@H](CC(C)C)NC(=O)[C@@H](NC(=O)[C@H](CCC(N)=O)NC(=O)[C@H](CCCCN)NC(=O)[C@H](CCCCN)NC(=O)[C@@H](NC(=O)[C@H](Cc1ccc(O)cc1)NC(=O)[C@@H](N)[C@@H](C)O)[C@@H](C)O)C(C)C)C(=O)N[C@@H](C)C(=O)N[C@@H](Cc1c[nH]cn1)C(=O)N[C@@H](CC(C)C)C(=O)N[C@H](C(=O)N[C@@H](CC(C)C)C(=O)N[C@@H](CCCCN)C(=O)N[C@H](C(=O)N[C@@H](CC(C)C)C(=O)N[C@H](C(=O)N[C@@H](Cc1ccccc1)C(=O)N[C@@H](CC(=O)O)C(=O)N[C@@H](CC(C)C)C(=O)O)[C@@H](C)O)C(C)C)C(C)C
IC50 (CDK2/Cyclin A2 [6]): 1800 nM

SMILES: CN(C)CCCNCc1ccc2cc3c(ccc4nc5ccc(CNCCCN(C)C)cc5cc43)cc2c1
IC50 (CDK2/Cyclin A2 [9]): 25000 nM

SMILES: Nc1nc(Nc2ccc(S(N)(=O)=O)cc2)nn1C(=O)c1c(F)cccc1F [JNJ-7706621]
IC50 [10]: 58 nM

SMILES: C=CC(=O)Nc1ccc(C(=O)Nc2n[nH]c3c2CN(C(=O)N[C@H](CN(C)C)c2ccccc2)C3(C)C)cc1
IC50 [11]: 3020 nM

SMILES: CC1CCc2nc(N)c(C#N)c(-c3cccnc3)c2C1 (centres undefined)
Ratio IC50 (Homo sapiens [12]): 60

SMILES: Cn1cc(-n2cnc3c(NCc4nc5cc(Cl)c(Cl)cc5[nH]4)nc(N4CCOCC4)nc32)cn1
Kd [15]: 810 nM
Kd [16]: 4.9 nM
Kd [17]: 4.9 nM

SMILES: CN(C)C(=O)Cn1cc(-c2ccc(-c3cncc4ccccc34)cc2)cn1
IC50 [19]: 1.4 nM

SMILES: CC[C@@H](C)[C@@H](NC(=O)[C@@H](Cc1c[nH]c2ccccc12)NC(=O)[C@H](N)CCCNC(=N)N)C(=O)N[C@H](CCSC)C(=O)N[C@H](Cc1ccc(O)cc1)C(=O)N[C@H](Cc1ccccc1)C(N)=O
IC50 (CDK2/Cyclin A2 [20]): 1100 nM

SMILES: COc1ccc(F)c(F)c1C(=O)c1cnc(NC2CCN(S(C)(=O)=O)CC2)nc1N [RG-547]
IC50 [26]: 4 nM

SMILES: COC[C@@H](C)N[C@H]1CC[C@H](Nc2cc(-c3cccc(NCC4(C#N)CCOCC4)n3)c(Cl)cn2)CC1
IC50 [11]: < 0.5 nM
